{
  "source": "patent US20220096508A1",
  "about": "“METHOD OF TREATMENT AND PHARMACEUTICAL DOSAGE FORM” (Aprea Therapeutics AB, priority 2019, published 2022)",
  "tested_on": "TP53 mutant myeloid neoplasms",
  "source_text": "The study, identified as NCT03072043 on clinicaltrials.gov, is a multi-institution, open-label, phase Ib/II clinical trial conducted in 2 parts: a Phase 1 b part followed by a Simon's two-stage Phase 2 design. The study assesses the safety and efficacy of APR-246 in combination with azacitidine for the treatment of TP53 mutant myeloid neoplasms. All patients were pre-screened by NGS on peripheral blood (PB) or bone marrow (BM) samples to determine TP53 mutational status and therefore eligibility to participate in this study. A PB sample was obtained prior to treatment for NGS by a central laboratory, to evaluate baseline TP53 VAF and for serial analysis.\nTreatment was administered on an outpatient basis. No investigational or commercial agents or therapies other than those described were administered with the intent to treat the patient's MDS or MDS/MPN. APR-246 was supplied by Aprea Therapeutics AB. The investigational medicinal product was a concentrate for solution, diluted with sterile 0.9% NaCl solution for infusion before administration. The solution for infusion was prepared with the prescribed dosage for each patient in accordance with the protocol and separate technical instruction.\nThe initial Phase 1 b part evaluated APR-246 administered with azacitidine. Cohorts of at least 3 evaluable patients were enrolled using a modified 3+3 design. Patients received IV infusions of APR-246 as a lead-in phase on days −14 to −11, starting at Dose Level 1 (see below and in Table 1) prior to starting cycle #1 of combination therapy with azacitidine (see FIG. 1) In all cycles, APR-246 was administered as a 6-hour infusion daily for four consecutive days (study days −14 to −11 of the lead in phase and day 1 to 4 of each combination cycle). • Dose Level 1 (starting dose): APR-246 21.0 mg/kg LBM (for the first 45 min)+29 mg/kg LBM (for 5 h 15 min) on days 1 to 4. • Dose Level 2: APR-246 30.0 mg/kg LBM (for first 45 min)+45.0 mg/kg LBM (for 5 h 15 min) on days 1 to 4. • Dose Level 3: APR-246 37.0 mg/kg LBM (for first 45 min)+63.0 mg/kg LBM (for 5 h 15 min) on days 1 to 4.\nThus, the combination therapy consisted of APR-246 on days 1-4 and azacitidine on days 4-10 of a 28-day cycle. Azacitidine was administered subcutaneously (SC) or intravenously (SC being preferred) at 75 mg/m^2 for 7 days (either for 7 consecutive days (days 4-10) or on 2+5 days (i.e. days 4-5 and 8-12)). Azacitidine was administered on day 4 at the same time as the final infusion of APR-246. Azacitidine was given following the completion of APR-246 infusion. Cohorts of at least 3 evaluable patients were enrolled using a modified 3+3 design. Patients were followed for at least 6 weeks (lead-in phase+cycle 1) before decision to dose escalation in the next cohort following a full safety assessment. The MTD was defined as the dose level below which DLT is manifested in 33% of the patients or at dose level 1 if DLT is manifested in <33% of the patients.\nFollowing completion of the dose finding phase described above, a dose expansion was carried out, whereby patients are treated with APR-246 administered at the MTD with azacitidine on a 28-day cycle with the same dosing schedule as in Phase Ib, with the exception of no lead in phase (i.e. patients will start at day 1 of combination therapy with APR-246 on days 1˜4 and azacitidine on days 4-10 (or days 4-5 and 8-12) of a 28-day cycle as illustrated in FIG. 1), and the exception that the recommended Phase 2 dose was modified from 100 mg/kg LBM to a fixed dose regimen of 4500 mg/patient (i.e. APR-246 administration in 2 consecutive steps as a loading dose (1500 mg for first 45 min) and a maintenance dose (3000 mg for 5 h 15 min)).",
  "key": {"[1]": {"details": "MDS population (n=40), combination with azacitidine"}, "[2]": {"details": "protocol-defined efficacy evaluable MDS population (n=33), combination with azacitidine"}},
  "note": "Read-outs that look alike come from different tables or passages of the source.",
  "data": [
    {"smiles": "COCC1(CO)C(=O)C2CCN1CC2", "note": "(stereo not drawn) [APR-246, 2-hydroxymethyl-2-methoxymethyl-1-azabicyclo [2,2,2] octan-3-one]", "values": [
      {"measurement": "patients able to discontinue therapy and proceed to allogeneic SCT", "setting": "MDS patients, combination with azacitidine", "result": 40, "unit": "%"},
      {"measurement": "CR rate", "setting": "[1]", "result": 50, "unit": "%"},
      {"measurement": "ORR", "setting": "[1]", "result": 73, "unit": "%"},
      {"measurement": "patients able to discontinue therapy and proceed to allogeneic SCT", "setting": "efficacy evaluable MDS patients, combination with azacitidine", "result": 48, "unit": "%"},
      {"measurement": "recommended Phase 2 dose", "setting": "human, in vivo", "result": 100, "unit": "mg/kg lean body weight"},
      {"measurement": "patients who achieved CR, Stage 1", "setting": "of 24 evaluable patients at the MTD, combination with azacitidine", "result": "More than 6"},
      {"measurement": "patients who achieved CR, Stage 2", "setting": "of 45 evaluable patients, combination with azacitidine", "result": "More than 14"},
      {"measurement": "CR", "setting": "[2]", "result": 61, "unit": "%"},
      {"measurement": "ORR", "setting": "[2]", "result": 88, "unit": "%"}
    ]}
  ]
}
